From patent publication US8466168B2, “Tricyclic alkylaminomethyloxazolidinone derivatives” (Actellon Pharmaceuticals Ltd., priority 2008, dated 2013)

Test system: S. aureus A798
Experiment: MIC determination by microdilution in cation-adjusted Mueller-Hinton Broth (CLSI M7-A7)
Assay type: cell-based
Details: Staphylococcus aureus, microdilution method, strain S. aureus A798
Method: Minimal inhibitory concentrations (MICs; mg/l) were determined in cation-adjusted Mueller-Hinton Broth by a microdilution method following the description given in “Methods for Dilution Antimicrobial Susceptibility Tests for Bacteria that Grow Aerobically”, Approved standard, 7th ed., Clinical and Laboratory Standards Institute (CLSI) Document M7-A7, Wayne, Pa., USA, 2006. All Example compounds were tested against several Gram positive and Gram negative bacteria such as S. aureus, E. faecalis, S. pneumoniae, M catarrhalis, A. baumanii, E. coli or P. aeruginosa.

| SMILES | MIC |
| --- | --- |
| COc1ccc2ncc3c(c2n1)C(CCNC[C@@H]1CN(c2ccc4c(c2)NC(=O)CS4)C(=O)O1)CO3 (mixture of isomers) [Example 9, 6-((R)-5-{[2-((RS)-8-methoxy-1,2-dihydro-3-oxa-5,9-diaza-cyclopenta[a]naphthalen-1-yl)-ethylamino]-methyl}-2-oxo-oxazolidin-3-yl)-4H-benzo[1,4]thiazin-3-one] | ≤ 0.031 µg/mL |
| COc1ccc2ncc3c(c2n1)C(CCNC[C@@H]1CN(c2ccc4c(c2)NC(=O)CO4)C(=O)O1)CO3 (mixture of isomers) [Example 10, 6-((R)-5-{[2-((RS)-8-methoxy-1,2-dihydro-3-oxa-5,9-diaza-cyclopenta[a]naphthalen-1-yl)-ethylamino]-methyl}-2-oxo-oxazolidin-3-yl)-4H-benzo[1,4]oxazin-3-one] | ≤ 0.031 µg/mL |
| COc1ccc2ncc3c(c2n1)C(CCNC[C@@H]1CN(c2ccc(C)c(F)c2)C(=O)O1)CO3 (mixture of isomers) [Example 11, (R)-3-(3-fluoro-4-methyl-phenyl)-5-{[2-((RS)-8-methoxy-1,2-dihydro-3-oxa-5,9-diaza-cyclopenta[a]naphthalen-1-yl)-ethylamino]-methyl}-oxazolidin-2-one] | 0.25 µg/mL |
| COc1ccc2ncc3c(c2n1)C(CCNC[C@H]1CN(c2ccc4c(c2)NC(=O)CS4)C(=O)O1)CO3 (mixture of isomers) [Example 12, 6-((S)-5-{[2-((RS)-8-methoxy-1,2-dihydro-3-oxa-5,9-diaza-cyclopenta[a]naphthalen-1-yl)-ethylamino]-methyl}-2-oxo-oxazolidin-3-yl)-4H-benzo[1,4]thiazin-3-one] | ≤ 0.031 µg/mL |
| COc1ccc2ncc3c(c2n1)C(CCNCC[C@@H]1CN(c2ccc4c(c2)NC(=O)CS4)C(=O)O1)CO3 (mixture of isomers) [Example 13, 6-((R)-5-{2-[2-((RS)-8-methoxy-1,2-dihydro-3-oxa-5,9-diaza-cyclopenta[a]naphthalen-1-yl)-ethylamino]-ethyl}-2-oxo-oxazolidin-3-yl)-4H-benzo[1,4]thiazin-3-one] | ≤ 0.031 µg/mL |
| COc1ccc2ncc3c(c2n1)C(CNCC[C@@H]1CN(c2ccc4c(c2)NC(=O)CS4)C(=O)O1)CO3 (mixture of isomers) [Example 14, 6-((R)-5-{2-[((RS)-8-methoxy-1,2-dihydro-3-oxa-5,9-diaza-cyclopenta[a]naphthalen-1-ylmethyl)-amino]-ethyl}-2-oxo-oxazolidin-3-yl)-4H-benzo[1,4]thiazin-3-one] | ≤ 0.031 µg/mL |
| COc1ccc2ncc3c(c2n1)C(CNCC[C@H]1CN(c2ccc4c(c2)NC(=O)CS4)C(=O)O1)CO3 (mixture of isomers) [Example 15, 6-((S)-5-{2-[((RS)-8-methoxy-1,2-dihydro-3-oxa-5,9-diaza-cyclopenta[a]naphthalen-1-ylmethyl)-amino]-ethyl}-2-oxo-oxazolidin-3-yl)-4H-benzo[1,4]thiazin-3-one] | ≤ 0.031 µg/mL |
| COc1ccc2ncc3c(c2n1)C(CCNC(=O)[C@@H]1CN(c2ccc4c(c2)OCCO4)C(=O)O1)CO3 (mixture of isomers) [Example 16, (S)-3-(2,3-dihydro-benzo[1,4]dioxin-6-yl)-2-oxo-oxazolidine-5-carboxylic acid [2-((RS)-8-methoxy-1,2-dihydro-3-oxa-5,9-diaza-cyclopenta[a]naphthalen-1-yl)-ethyl]-amide] | ≤ 0.031 µg/mL |
| COc1ccc2ncc3c(c2n1)CC(CNC[C@@H]1CN(c2ccc4c(c2)NC(=O)CS4)C(=O)O1)O3 (mixture of isomers) [Example 17, 6-((R)-5-{[((RS)-8-methoxy-1,2-dihydro-3-oxa-5,9-diaza-cyclopenta[a]naphthalen-2-ylmethyl)-amino]-methyl}-2-oxo-oxazolidin-3-yl)-4H-benzo[1,4]thiazin-3-one] | ≤ 0.031 µg/mL |
| COc1ccc2ncc3c(c2n1)CC(CNCC[C@@H]1CN(c2ccc4c(c2)NC(=O)CO4)C(=O)O1)O3 (mixture of isomers) [Example 18, 6-((R)-5-{2-[((RS)-8-methoxy-1,2-dihydro-3-oxa-5,9-diaza-cyclopenta[a]naphthalen-2-ylmethyl)-amino]-ethyl}-2-oxo-oxazolidin-3-yl)-4H-benzo[1,4]oxazin-3-one] | ≤ 0.031 µg/mL |
| COc1ccc2ncc3c(c2n1)CC(CNCC[C@@H]1CN(c2ccc4c(c2)NC(=O)CS4)C(=O)O1)O3 (mixture of isomers) [Example 19, 6-((R)-5-{2-[((RS)-8-methoxy-1,2-dihydro-3-oxa-5,9-diaza-cyclopenta[a]naphthalen-2-ylmethyl)-amino]-ethyl}-2-oxo-oxazolidin-3-yl)-4H-benzo[1,4]thiazin-3-one] | ≤ 0.031 µg/mL |
| COc1ccc2ncc3c(c2n1)[C@@H](CCNCC1CN(c2ccc4c(c2)OCCO4)C(=O)O1)CO3 (mixture of isomers) [Example 20, (RS)-3-(2,3-dihydro-benzo[1,4]dioxin-6-yl)-5-{[2-((R)-8-methoxy-1,2-dihydro-3-oxa-5,9-diaza-cyclopenta[a]naphthalen-1-yl)-ethylamino]-methyl}-oxazolidin-2-one] | 1 µg/mL |

The remaining lines, values ahead:

| MIC | SMILES |
| --- | --- |
| ≤ 0.031 µg/mL | COc1ccc2ccc3c(c2n1)CC(CNC[C@@H]1CN(c2ccc4c(c2)NC(=O)CS4)C(=O)O1)CO3 (mixture of isomers) [Example 1, 6-((R)-5-{[((RS)-6-methoxy-3,4-dihydro-2H-1-oxa-5-aza-phenanthren-3-ylmethyl)-amino]-methyl}-2-oxo-oxazolidin-3-yl)-4H-benzo[1,4]thiazin-3-one] |
| ≤ 0.031 µg/mL | COc1ccc2ccc3c(c2n1)CC(CNC[C@@H]1CN(c2ccc4c(c2)NC(=O)CO4)C(=O)O1)CO3 (mixture of isomers) [Example 2, 6-((R)-5-{[((RS)-6-methoxy-3,4-dihydro-2H-1-oxa-5-aza-phenanthren-3-ylmethyl)-amino]-methyl}-2-oxo-oxazolidin-3-yl)-4H-benzo[1,4]oxazin-3-one] |
| ≤ 0.031 µg/mL | COc1ccc2ncc3c(c2n1)CC(CNC[C@@H]1CN(c2ccc4c(c2)NC(=O)CO4)C(=O)O1)CO3 (mixture of isomers) [Example 3, 6-((R)-5-{[((RS)-6-methoxy-3,4-dihydro-2H-1-oxa-5,9-diaza-phenanthren-3-ylmethyl)-amino]-methyl}-2-oxo-oxazolidin-3-yl)-4H-benzo[1,4]oxazin-3-one] |
| ≤ 0.031 µg/mL | COc1ccc2ncc3c(c2n1)CC(CNC[C@@H]1CN(c2ccc4c(c2)NC(=O)CS4)C(=O)O1)CO3 (mixture of isomers) [Example 4, 6-((R)-5-{[((RS)-6-methoxy-3,4-dihydro-2H-1-oxa-5,9-diaza-phenanthren-3-ylmethyl)-amino]-methyl}-2-oxo-oxazolidin-3-yl)-4H-benzo[1,4]thiazin-3-one] |
| ≤ 0.031 µg/mL | COc1ccc2ncc3c(c2n1)CC(CNC[C@@H]1CN(c2ccc4c(c2)NC(=O)CS4)C(=O)O1)CN3 (mixture of isomers) [Example 5, 6-((R)-5-{[((RS)-6-methoxy-1,2,3,4-tetrahydro-1,5,9-triaza-phenanthren-3-ylmethyl)-amino]-methyl}-2-oxo-oxazolidin-3-yl)-4H-benzo[1,4]thiazin-3-one] |
| ≤ 0.031 µg/mL | COc1ccc2ccc3c(c2n1)C(CCNC[C@@H]1CN(c2ccc4c(c2)NC(=O)CS4)C(=O)O1)CO3 (mixture of isomers) [Example 6, 6-((R)-5-{[2-((RS)-2-methoxy-8,9-dihydro-furo[2,3-h]quinolin-9-yl)-ethylamino]-methyl}-2-oxo-oxazolidin-3-yl)-4H-benzo[1,4]thiazin-3-one] |
| ≤ 0.031 µg/mL | COc1ccc2ccc3c(c2n1)C(CCNC[C@@H]1CN(c2ccc4c(c2)NC(=O)CO4)C(=O)O1)CO3 (mixture of isomers) [Example 7, 6-((R)-5-{[2-((RS)-2-methoxy-8,9-dihydro-furo[2,3-h]quinolin-9-yl)-ethylamino]-methyl}-2-oxo-oxazolidin-3-yl)-4H-benzo[1,4]oxazin-3-one] |
| ≤ 0.031 µg/mL | COc1ccc2ccc3c(c2n1)C(CNC[C@@H]1CN(c2ccc4c(c2)NC(=O)CS4)C(=O)O1)CO3 (mixture of isomers) [Example 8, 6-((R)-5-{[((RS)-2-methoxy-8,9-dihydro-furo[2,3-h]quinolin-9-ylmethyl)-amino]-methyl}-2-oxo-oxazolidin-3-yl)-4H-benzo[1,4]thiazin-3-one] |
